Laboratory results published in PubChem BioAssay (NCI).
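96-well plates; 48 h exposure; 5 concentrations. Endpoints by linear interpolation between flanking doses. Not reached: highest tested concentration assigned. TGI: concentration producing complete growth inhibition.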

What was measured:
Experiment in all cases: NCI-60 cell line screen, 48 h
786-0 renal = tested on: 786-0 renal
A498 renal = tested on: A498 renal
A549 NSCLC = tested on: A549 NSCLC
ACHN renal = tested on: ACHN renal
CAKI-1 renal = tested on: CAKI-1 renal
CCRF-CEM leukemia = tested on: CCRF-CEM leukemia
COLO 205 colon = tested on: COLO 205 colon
DLD-1 colon = tested on: DLD-1 colon
DMS 114 small cell lung = tested on: DMS 114 small cell lung
DMS 273 small cell lung = tested on: DMS 273 small cell lung
EKVX NSCLC = tested on: EKVX NSCLC
HCC-2998 colon = tested on: HCC-2998 colon
HCT-116 colon = tested on: HCT-116 colon
HL-60(TB) leukemia = tested on: HL-60(TB) leukemia
HOP-62 NSCLC = tested on: HOP-62 NSCLC
HT29 colon = tested on: HT29 colon
IGROV1 ovarian = tested on: IGROV1 ovarian
K-562 leukemia = tested on: K-562 leukemia
KM12 colon = tested on: KM12 colon
KM20L2 colon = tested on: KM20L2 colon
LOX IMVI melanoma = tested on: LOX IMVI melanoma
LXFL 529 NSCLC = tested on: LXFL 529 NSCLC
M14 melanoma = tested on: M14 melanoma
M19-MEL melanoma = tested on: M19-MEL melanoma
MALME-3M melanoma = tested on: MALME-3M melanoma
MOLT-4 leukemia = tested on: MOLT-4 leukemia
NCI-H226 lung = tested on: NCI-H226 lung
NCI-H23 lung = tested on: NCI-H23 lung
NCI-H522 lung = tested on: NCI-H522 lung
OVCAR-4 ovarian = tested on: OVCAR-4 ovarian
OVCAR-8 ovarian = tested on: OVCAR-8 ovarian
RPMI-8226 leukemia = tested on: RPMI-8226 leukemia
RXF 393 renal = tested on: RXF 393 renal
RXF-631 renal = tested on: RXF-631 renal
SF-268 CNS = tested on: SF-268 CNS
SF-295 CNS = tested on: SF-295 CNS
SF-539 CNS = tested on: SF-539 CNS
SK-MEL-2 melanoma = tested on: SK-MEL-2 melanoma
SK-MEL-5 melanoma = tested on: SK-MEL-5 melanoma
SN12C renal = tested on: SN12C renal
SNB-19 CNS = tested on: SNB-19 CNS
SNB-75 CNS = tested on: SNB-75 CNS
SR leukemia = tested on: SR leukemia
SW-620 colon = tested on: SW-620 colon
TK-10 renal = tested on: TK-10 renal
U251 CNS = tested on: U251 CNS
UACC-257 melanoma = tested on: UACC-257 melanoma
UACC-62 melanoma = tested on: UACC-62 melanoma
UO-31 renal = tested on: UO-31 renal
XF 498 CNS = tested on: XF 498 CNS
HCT-15 colon = tested on: HCT-15 colon
HOP-92 NSCLC = tested on: HOP-92 NSCLC
NCI-H460 lung = tested on: NCI-H460 lung
OVCAR-3 ovarian = tested on: OVCAR-3 ovarian
OVCAR-5 ovarian = tested on: OVCAR-5 ovarian
SK-MEL-28 melanoma = tested on: SK-MEL-28 melanoma
SK-OV-3 ovarian = tested on: SK-OV-3 ovarian
SNB-78 CNS = tested on: SNB-78 CNS

Compound `COc1ccc(S(=O)(=O)NNS(C)(=O)=O)cc1` has a TGI (786-0 renal) greater than 100 µM, a TGI (A498 renal) greater than 100 µM and a TGI (A549 NSCLC) greater than 100 µM. The TGI (ACHN renal) was greater than 100 µM, the TGI (CAKI-1 renal) was greater than 100 µM and the TGI (CCRF-CEM leukemia) was greater than 100 µM. For the same compound, the TGI (COLO 205 colon) was greater than 100 µM, the TGI (DLD-1 colon) was greater than 100 µM and the TGI (DMS 114 small cell lung) was greater than 100 µM. It also gave a TGI (DMS 273 small cell lung) greater than 100 µM, a TGI (EKVX NSCLC) greater than 100 µM and a TGI (HCC-2998 colon) greater than 100 µM. It also gave a TGI (HCT-116 colon) greater than 100 µM, a TGI (HL-60(TB) leukemia) greater than 100 µM and a TGI (HOP-62 NSCLC) greater than 100 µM. It also gave a TGI (HT29 colon) greater than 100 µM, a TGI (IGROV1 ovarian) greater than 100 µM and a TGI (K-562 leukemia) greater than 100 µM. It also gave a TGI (KM12 colon) greater than 100 µM, a TGI (KM20L2 colon) greater than 100 µM and a TGI (LOX IMVI melanoma) greater than 100 µM. The TGI (LXFL 529 NSCLC) was greater than 100 µM, the TGI (M14 melanoma) was greater than 100 µM and the TGI (M19-MEL melanoma) was greater than 100 µM. It also gave a TGI (MALME-3M melanoma) greater than 100 µM, a TGI (MOLT-4 leukemia) greater than 100 µM and a TGI (NCI-H226 lung) greater than 100 µM. It also gave a TGI (NCI-H23 lung) greater than 100 µM, a TGI (NCI-H522 lung) greater than 100 µM and a TGI (OVCAR-4 ovarian) greater than 100 µM. It also gave a TGI (OVCAR-8 ovarian) greater than 100 µM, a TGI (RPMI-8226 leukemia) greater than 100 µM and a TGI (RXF 393 renal) greater than 100 µM. It also gave a TGI (RXF-631 renal) greater than 100 µM, a TGI (SF-268 CNS) greater than 100 µM and a TGI (SF-295 CNS) greater than 100 µM. For the same compound, the TGI (SF-539 CNS) was greater than 100 µM, the TGI (SK-MEL-2 melanoma) was greater than 100 µM and the TGI (SK-MEL-5 melanoma) was greater than 100 µM. The TGI (SN12C renal) was greater than 100 µM, the TGI (SNB-19 CNS) was greater than 100 µM and the TGI (SNB-75 CNS) was greater than 100 µM. It also gave a TGI (SR leukemia) greater than 100 µM, a TGI (SW-620 colon) greater than 100 µM and a TGI (TK-10 renal) greater than 100 µM. It also gave a TGI (U251 CNS) greater than 100 µM, a TGI (UACC-257 melanoma) greater than 100 µM and a TGI (UACC-62 melanoma) greater than 100 µM. For the same compound, the TGI (UO-31 renal) was greater than 100 µM and the TGI (XF 498 CNS) was greater than 100 µM.

`CCOC(=O)C(=C=C=C(c1ccccc1)c1ccccc1)C(=O)OCC` gave a TGI (786-0 renal) of 32 µM, a TGI (A498 renal) of 78.9 µM and a TGI (A549 NSCLC) of 74.5 µM. It also gave a TGI (ACHN renal) of 36.7 µM, a TGI (CCRF-CEM leukemia) of 15.1 µM and a TGI (COLO 205 colon) of 32.5 µM. The TGI (DLD-1 colon) was 40.7 µM, the TGI (DMS 114 small cell lung) was 40.1 µM and the TGI (DMS 273 small cell lung) was 45.5 µM. It also gave a TGI (EKVX NSCLC) of 82.8 µM, a TGI (HCC-2998 colon) of 61.4 µM and a TGI (HCT-116 colon) of 38.6 µM. For the same compound, the TGI (HCT-15 colon) was 49.1 µM, the TGI (HL-60(TB) leukemia) was 38.5 µM and the TGI (HOP-62 NSCLC) was 45.2 µM. The TGI (HOP-92 NSCLC) was 31.3 µM, the TGI (HT29 colon) was 41.7 µM and the TGI (IGROV1 ovarian) was 37.9 µM. The TGI (K-562 leukemia) was 28.5 µM, the TGI (KM12 colon) was 46.1 µM and the TGI (KM20L2 colon) was 45.2 µM. It also gave a TGI (LOX IMVI melanoma) of 36.6 µM, a TGI (LXFL 529 NSCLC) of 31.4 µM and a TGI (M14 melanoma) of 41.5 µM. It also gave a TGI (M19-MEL melanoma) of 37.7 µM, a TGI (MALME-3M melanoma) of 40.2 µM and a TGI (MOLT-4 leukemia) of 30.8 µM. The TGI (NCI-H226 lung) was 37.6 µM, the TGI (NCI-H23 lung) was greater than 100 µM and the TGI (NCI-H460 lung) was 46.5 µM. It also gave a TGI (OVCAR-3 ovarian) of 31 µM, a TGI (OVCAR-4 ovarian) of 33.7 µM and a TGI (OVCAR-5 ovarian) of 35.5 µM. The TGI (OVCAR-8 ovarian) was 50.3 µM, the TGI (RPMI-8226 leukemia) was 44.9 µM and the TGI (RXF 393 renal) was 32.8 µM. The TGI (RXF-631 renal) was 77 µM, the TGI (SF-268 CNS) was 63.5 µM and the TGI (SF-295 CNS) was 30.6 µM. The TGI (SF-539 CNS) was 33.8 µM, the TGI (SK-MEL-2 melanoma) was 36.9 µM and the TGI (SK-MEL-28 melanoma) was 36.8 µM. It also gave a TGI (SK-OV-3 ovarian) of 50.3 µM, a TGI (SN12C renal) of 42.4 µM and a TGI (SNB-19 CNS) of 55.4 µM. For the same compound, the TGI (SNB-75 CNS) was 21.9 µM, the TGI (SNB-78 CNS) was 37 µM and the TGI (SW-620 colon) was 51.2 µM. It also gave a TGI (TK-10 renal) of 31.3 µM, a TGI (U251 CNS) of 33.2 µM and a TGI (UACC-257 melanoma) of 33.4 µM. It also gave a TGI (UACC-62 melanoma) of 37.7 µM, a TGI (UO-31 renal) of 34.1 µM and a TGI (XF 498 CNS) of 30.3 µM.
